Laboratory results from patent US6919208B2, “Methods and compositions for enhancing the delivery of a nucleic acid to a cell” (The Children's Hospital of Philadelphia, priority 2000, dated 2005).
Read-outs that look alike come from different tables or passages of the source.

Tests used:
A10 cells [1] = test: p-EGFP-N3 (GFP) plasmid transfection of A10 cells on native type I collagen with cytochalasin D added after lipofection; assay type: cell-based, Rat; conditions: 1 nanomolar
Method: A10 cells were grown on native type I collagen. […] Immediately after lipofection, cytochalasin D at a final concentration of 1 nanomolar was either added to cells for thirty minutes, added to cells for an overnight incubation or not added at all (control). The fluorescence of control cells, cells treated with cytochalasin D for thirty minutes, and cells treated with cytochalasin D for an overnight incubation (FIGS. 6A, 6B and 6C, respectively) was assessed. Bright field micrographs were also taken of the control cells, cells treated with cytochalasin D for thirty minutes, and cells treated with cytochalasin D for an overnight incubation (FIGS. 7A, 7B and 7C, respectively).

A10 cells [2] = tested on: A10 cells
Method: A10 cells were grown on native type I collagen containing 0, 15 and 50 micrograms per milliliter of Tenascin C. The cells were transfected with p-EGFP-N3 (green fluorescent protein) plasmid DNA.

Compound | transfection (GFP expression), time dependence (A10 cells [1]; added immediately after lipofection) | transfection relative to control cells (A10 cells [1]; overnight exposure) | transfection relative to control cells (A10 cells [1]; thirty minute exposure) | cell morphology (bright field micrograph) (A10 cells [2]) | transfection (GFP expression), dose dependence (A10 cells [2]; 0, 15 and 50 micrograms per milliliter in native type I collagen, 24 h after transfection) | transfection (GFP fluorescence) (A10 cells [2]; 15 micrograms per milliliter in native type I collagen, 24 h after transfection) | transfection (GFP fluorescence) (A10 cells [2]; 50 micrograms per milliliter in native type I collagen, 24 h after transfection)
C=C1[C@@H](C)[C@H]2[C@H](Cc3ccccc3)NC(=O)[C@]23[C@H](OC(C)=O)/C=C/[C@@](C)(O)C(=O)[C@@H](C)C/C=C/[C@H]3[C@@H]1O [cytochalasin D] | time-dependent increase in transfection | notably higher amount of transfection | increased transfection |  |  |  | 
Tenascin C: extracellular matrix protein abundantly expressed within remodeling tissues; added to native type I collagen |  |  |  | normal cell morphology | dose-dependent increase in transfection | increased transfection | highest degree of transfection
